# ChEMBL document CHEMBL4219097, “Synthesis of 3-aza[4.4.3]propellanes with high σ1 receptor affinity” (Bioorg Med Chem, 2018)
# Tests used:
# [1] = molecular target: Sigma non-opioid intracellular receptor 1 (Cavia porcellus, UniProt Q60492); experiment: Displacement of [3H]-(+)-pentazocine from sigma1 receptor in guinea pig brain cortex membranes measured after 120 mins by scintillation counting method; assay type: cell membranes
# [2] = molecular target: T1, Sigma intracellular receptor 2 (Rattus norvegicus, UniProt Q5U3Y7); experiment: Displacement of [3H]DTG from sigma 2 receptor in rat liver membranes measured after 120 mins by scintillation counting method; assay type: cell membranes, Membrane
# T1 sequence (Q5U3Y7 whole entry): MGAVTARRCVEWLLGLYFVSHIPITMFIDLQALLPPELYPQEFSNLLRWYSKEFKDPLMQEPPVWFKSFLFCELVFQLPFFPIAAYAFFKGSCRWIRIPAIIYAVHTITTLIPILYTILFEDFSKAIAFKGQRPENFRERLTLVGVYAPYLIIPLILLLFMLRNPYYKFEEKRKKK
# [3] = Selectivity ratio of Ki for displacement of [3H]DTG from sigma 2 receptor in rat liver membranes to Ki for displacement of [3H]-(+)-pentazocine from sigma1 receptor in guinea pig brain cortex membranes; assay type: cell membranes
# [4] = molecular target: T2, Sigma intracellular receptor 2 (Rattus norvegicus) (UniProt Q5U3Y7); experiment: Displacement of [3H]DTG from sigma 2 receptor in rat liver membranes at 1 uM measured after 120 mins by scintillation counting method; assay type: cell membranes; conditions: Membrane
# T2 sequence (whole entry): T1 sequence (Q5U3Y7 whole entry)
# [5] = molecular target: Sigma non-opioid intracellular receptor 1 (Cavia porcellus) (UniProt Q60492); experiment: Displacement of [3H]-(+)-pentazocine from sigma1 receptor in guinea pig brain cortex membranes at 1 uM measured after 120 mins by scintillation counting method; assay type: cell membranes
# Chain of Sigma non-opioid intracellular receptor 1 (Cavia porcellus) (Q60492 whole entry): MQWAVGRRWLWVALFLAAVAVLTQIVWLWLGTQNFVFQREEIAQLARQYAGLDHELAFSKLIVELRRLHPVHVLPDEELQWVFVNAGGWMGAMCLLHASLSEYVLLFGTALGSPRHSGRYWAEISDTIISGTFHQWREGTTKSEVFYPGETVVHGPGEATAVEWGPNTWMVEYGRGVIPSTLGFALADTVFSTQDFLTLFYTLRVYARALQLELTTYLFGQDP
# Chain of Sigma non-opioid intracellular receptor 1 (Q60492 whole entry): as above
Compound,Ki [1] [nM],Ki [2] [nM],Ratio Ki [3],inhibition [4] [%],inhibition [5] [%]
c1ccc(CN2CCC34CCCCC3(CCC4)C2)cc1 (racemic),17,190,11,–,–
COc1ccc(C)cc1NC(=O)OC1CC23CCCCC2(C1)CN(Cc1ccccc1)CC3 (racemic; anti) [listing 2 of 2 here],–,–,> 12,8,–
OC1CC23CCCCC2(C1)CN(Cc1ccccc1)CC3 (racemic; syn) [listing 1 of 2 here],336,690,–,–,–
OC1CC23CCCCC2(C1)CN(Cc1ccccc1)CC3 (racemic; syn) [listing 2 of 2 here],–,–,2,–,–

# Continued, values first:
Ki [1] [nM],Ki [2] [nM],Ratio Ki [3],inhibition [4] [%],inhibition [5] [%],Compound
122,2040,–,–,–,OC1CC23CCCCC2(C1)CN(Cc1ccccc1)CC3 (racemic; anti) [listing 1 of 2 here]
82,–,–,–,–,COc1ccc(C)cc1NC(=O)OC1CC23CCCCC2(C1)CN(Cc1ccccc1)CC3 (racemic; anti) [listing 1 of 2 here]
–,–,17,–,–,OC1CC23CCCCC2(C1)CN(Cc1ccccc1)CC3 (racemic; anti) [listing 2 of 2 here]
–,–,–,0,12,COc1ccc(C)cc1NC(=O)OC1CC23CCCCC2(C1)CN(Cc1ccccc1)CC3 (racemic; syn)
